What was measured:
[1] = tested on: autologous blood clots injected in femoral vein (pulmonary thrombus); experiment: Anti-thrombosis activity, autologous blood clots in rabbits; format: in vivo, Chinese White rabbits; conditions: 50 mg/kg topically to the back twice per day, 5 days
Experimental: Eighteen Chinese White rabbits weighing between 3.0 and 3.5 kg (aged 6-7 months) were selected and divided into three groups (control, P-1 and […] groups, n=6). One hour before the experiment, thrombi were made by aspirating venous blood (1 ml) into a sterilized bottle to clot. To avoid fragmentation and slow lysis, the autologous blood clots were stabilized in temperature-controlled (70° C.) distilled water for 10 min. After anesthesia, the femoral veins were exposed and distally isolated, and autologous blood clots (0.05 g/kg) were injected through an indwelling catheter (20GA), which had been placed in the femoral vein isolated earlier. 50 mg/kg of diethylaminoethyl acetylsalicylate.HCl salt (P-1, 10% in 25% ethanol) and diethylaminoethyl acetylsalicylsalicylate.HCl salt (P-59, 10% in 25% ethanol) were topically applied to the back of the rabbits twice per day. After 5 days, rabbits were euthanized with an excessive intravenous injection of sodium amobarbital (60 mg/kg). The lungs and hearts were isolated to observe whether thrombi were present in the pulmonary arteries. The lungs were immersed in 10% formalin for 24 h. Consecutive transverse sections along the obstructed pulmonary arteries were paraffin-embedded and stained with hematoxylin-eosine. […]

[2] = tested on: SLAC/MRL/LPR mice; experiment: Lupus in MRL/LPR mice treated from 16 weeks old, 30 mg/kg (10% aq.) on back skin twice per day; format: in vivo
Experimental: . Progression of lupus was monitored once a week by measurement of hematuria, body weight and survival rate. The experiments were carried out in two groups of mice. One group of mice were 8 weeks old and had not shown SLE characteristics (Table 26a). The other group of mice were 16 weeks old, and had shown SLE characteristics (Table 26b).

[3] = Amount of salicylic acid in rat brain tissue (blood-brain barrier), 0.5 mmol/kg; format: in vivo, rats
Experimental: 30, 60, 120, 240, 480 minutes after the test compound was administrated, rats were decapitated and were perfused with normal Krebs-Henseleit buffer (with Heparin Sodium, pH7.4) (10 mL/min) to remove blood. […] The mixture was centrifuged for 5 minutes at 16,000 rpm. The supernatant (2 ml) was collected and evaporated to dryness.

[4] = tested on: MPTP-induced Parkinson's disease mice; experiment: Anti-Parkinson's disease activity in MPTP-induced mice; conditions: MPTP mice, 30 mg/kg, n = 10
Experimental: Group A mice were ip injected 0.4% sodium carboxymethylcellulos (15 ml/kg per day) for 7 days. Group B and C mice were ip injected N-methyl-4-phenyl-1,2,3,6-tetrahydropyridine (MPTP, 30 mg/kg per day) for 7 days. The mice were divided into 2 groups. […] All mice were killed after the last treatment and the brain tissues were quickly freezed at −80° C. […] The contents of malondialdehyde (MDA) in the SN were measured with the thiobarbituric acid-reaction to indicate the LPO, and contents of glutathione (GSH) in the substantia nigra (SN) were based on the dithionitrobenzonic acid (DTNB) determination. The contents of GABA and Glu in the striatum and SN were shown by high performance amino acid auto-analyser.

## CCN(CC)CCOC(=O)c1ccccc1OC(C)=O.Cl [P-1, diethylaminoethyl acetylsalicylate.HCl salt]
[1]
  lung tissue and vascular walls (histology): both lung tissue and vascular walls were normal
[2]; week 16
  Body Weight: 42.6 ± 2.1 g
  Hematuria (0-4): 1.70 ± 0.26
  Survival Rate: 10/10
[2]; week 17
  Body Weight: 44.2 ± 2.0 g
  Hematuria (0-4): 1.50 ± 0.17
  Survival Rate: 10/10
[2]; week 18
  Body Weight: 46.6 ± 2.4 g
  Hematuria (0-4): 1.30 ± 0.15
  Survival Rate: 10/10
[2]; week 19
  Body Weight: 47.9 ± 2.5 g
  Hematuria (0-4): 0.80 ± 0.13
  Survival Rate: 10/10
[2]; week 20
  Body Weight: 46.8 ± 2.0 g
  Hematuria (0-4): 0.80 ± 0.13
  Survival Rate: 10/10
[2]; week 21
  Body Weight: 47.2 ± 2.2 g
  Hematuria (0-4): 0.80 ± 0.13
  Survival Rate: 10/10
[2]; week 22
  Body Weight: 47.6 ± 1.9 g
  Hematuria (0-4): 0.80 ± 0.20
  Survival Rate: 10/10
[2]; week 23
  Body Weight: 47.1 ± 2.3 g
  Hematuria (0-4): 0.80 ± 0.20
  Survival Rate: 10/10
[2]; week 24
  Body Weight: 46.8 ± 2.1 g
  Hematuria (0-4): 0.80 ± 0.20
  Survival Rate: 10/10
[2]; week 25
  Body Weight: 47.2 ± 2.0 g
  Hematuria (0-4): 0.70 ± 0.15
  Survival Rate: 10/10
[2]; week 26
  Body Weight: 46.9 ± 2.6 g
  Hematuria (0-4): 0.70 ± 0.15
  Survival Rate: 10/10
[2]; week 27
  Body Weight: 47.3 ± 2.0 g
  Hematuria (0-4): 0.60 ± 0.22
  Survival Rate: 10/10
[2]; week 28
  Body Weight: 47.6 ± 2.4 g
  Hematuria (0-4): 0.70 ± 0.15
  Survival Rate: 10/10
[2]; week 29
  Body Weight: 47.2 ± 2.5 g
  Hematuria (0-4): 0.70 ± 0.15
  Survival Rate: 10/10
[2]; week 30
  Body Weight: 46.4 ± 2.1 g
  Hematuria (0-4): 0.60 ± 0.22
  Survival Rate: 10/10
[2]; week 31
  Body Weight: 47.1 ± 2.2 g
  Hematuria (0-4): 0.80 ± 0.20
  Survival Rate: 10/10
[2]; week 32
  Body Weight: 46.6 ± 2.4 g
  Hematuria (0-4): 0.70 ± 0.15
  Survival Rate: 10/10
[2]; week 33
  Body Weight: 47.3 ± 2.1 g
  Hematuria (0-4): 0.50 ± 0.17
  Survival Rate: 10/10
[2]; week 34
  Body Weight: 47.6 ± 2.0 g
  Hematuria (0-4): 0.70 ± 0.15
  Survival Rate: 10/10
[2]; week 35
  Body Weight: 47.2 ± 2.0 g
  Hematuria (0-4): 0.70 ± 0.15
  Survival Rate: 10/10
[2]; week 36
  Body Weight: 46.9 ± 2.1 g
  Hematuria (0-4): 0.50 ± 0.17
  Survival Rate: 10/10
[2]; week 37
  Body Weight: 47.4 ± 2.7 g
  Hematuria (0-4): 0.70 ± 0.15
  Survival Rate: 10/10
[2]; week 38
  Body Weight: 46.9 ± 2.3 g
  Hematuria (0-4): 0.60 ± 0.22
  Survival Rate: 10/10
[2]; week 39
  Body Weight: 47.2 ± 2.0 g
  Hematuria (0-4): 0.50 ± 0.17
  Survival Rate: 10/10
[2]; week 40
  Body Weight: 47.6 ± 2.3 g
  Hematuria (0-4): 0.70 ± 0.15
  Survival Rate: 10/10
[2]; week 41
  Body Weight: 47.7 ± 2.2 g
  Hematuria (0-4): 0.60 ± 0.22
  Survival Rate: 10/10
[2]; week 42
  Body Weight: 46.9 ± 2.0 g
  Hematuria (0-4): 0.70 ± 0.15
  Survival Rate: 10/10
[2]; week 43
  Body Weight: 47.5 ± 2.8 g
  Hematuria (0-4): 0.60 ± 0.22
  Survival Rate: 10/10
[2]; week 44
  Body Weight: 47.6 ± 2.0 g
  Hematuria (0-4): 0.70 ± 0.15
  Survival Rate: 10/10
[2]; week 45
  Body Weight: 47.9 ± 2.5 g
  Hematuria (0-4): 0.50 ± 0.17
  Survival Rate: 10/10
[2]; week 46
  Body Weight: 47.6 ± 2.4 g
  Hematuria (0-4): 0.70 ± 0.15
  Survival Rate: 10/10
[2]; week 47
  Body Weight: 47.3 ± 2.8 g
  Hematuria (0-4): 0.60 ± 0.22
  Survival Rate: 10/10
[2]; week 48
  Body Weight: 46.6 ± 2.8 g
  Hematuria (0-4): 0.50 ± 0.17
  Survival Rate: 10/10
[2]; week 49
  Body Weight: 46.9 ± 2.1 g
  Hematuria (0-4): 0.60 ± 0.22
  Survival Rate: 10/10
[2]; week 50
  Body Weight: 47.1 ± 2.7 g
  Hematuria (0-4): 0.50 ± 0.17
  Survival Rate: 10/10
[3]; intramuscularly, 30 min
  salicylic acid in brain tissue: 6.5 ± 2.2 nmol/g
[3]; intramuscularly, 60 min
  salicylic acid in brain tissue: 8.2 ± 2.3 nmol/g
[3]; intramuscularly, 120 min
  salicylic acid in brain tissue: 9.4 ± 3.1 nmol/g
[3]; intramuscularly, 240 min
  salicylic acid in brain tissue: 8.5 ± 2.5 nmol/g
[3]; intramuscularly, 480 min
  salicylic acid in brain tissue: 8.2 ± 2.3 nmol/g
[3]; transdermally, 30 min
  salicylic acid in brain tissue: 3.1 ± 1.1 nmol/g
[3]; transdermally, 60 min
  salicylic acid in brain tissue: 6.3 ± 2.3 nmol/g
[3]; transdermally, 120 min
  salicylic acid in brain tissue: 8.2 ± 3.5 nmol/g
[3]; transdermally, 240 min
  salicylic acid in brain tissue: 9.3 ± 3.3 nmol/g
[3]; transdermally, 480 min
  salicylic acid in brain tissue: 9.5 ± 4.2 nmol/g
[4]
  GABA in Striatum: 4.9 ± 1.6 μmol/g wet tissue
  GABA in Substantia nigra: 4.7 ± 0.5 μmol/g wet tissue
  GSH in the substantia nigra: 143 ± 13 μg/g protein
  Glu in Striatum: 26.5 ± 2.7
  Glu in Substantia nigra: 29.5 ± 2.4
  MDA in the substantia nigra: 14 ± 4 μmol/g protein
